Among the data in PubChem BioAssay AID1919004 (Molecular Pharmacology Branch, DTP, NCI, 2023) are viability, T/C and IC50 values, retold here.

Each structure is given as a SMILES string. “And” between values parts separate entries of the source, which are not always exact repeats. Identical values can stand only once.

In this assay the test system is 883617-216-R-J1-PDC complex spheroids, growth, % test/control. The experiment in a line: Anticancer human tumor 883617-216-R-J1-PDC patient-derived bladder carcinoma cell line growth inhibition [AhR]. Particulars: for viability, T/C: stronger effect = lower value; for IC50: curve of compound. From the text: Multicellular complex tumor spheroid response to aryl hydrocarbon receptor antagonists in combination with a variety of drugs and investigational agents in selected tumor cell lines
The current study was undertaken to assess response to aryl hydrocarbon receptor antagonists in combination with standard-of-care drugs and investigational agents in solid tumor complex spheroid models. Complex spheroids include a stromal component modeled by human endothelial cells (HUVEC) and fibroblasts modeled by human mesenchymal stem cells (MSCs). The concentration ranges selected for each drug and investigational agent were based upon clinically achievable concentrations if the clinical Cmax of the agent was known.
Compounds. The drugs and investigational agents: BAY 2416964 (NSC825713), GNF351 (NSC835774), CH-223191 (NSC835775), CPI-455 (NSC825282), aza-TdCyd (NSC777586), decitabine (NSC127716), belinostat (NSC758774), entinostat (NSC756642), pevonedistat (NSC761192), tazemetostat (NSC777109), talazoparib (NSC765396), olaparib (NSC753686), selinexor (NSC780203), nedisertib (M3814, NSC802822), bortezomib (NSC756655), venetoclax (NSC766270), doxorubicin (NSC123127), elimusertib (BAY189344, NSC800525), ceralasertib (AZD6738, NSC777638), TAK-243 (NSC785004), alisertib (NSC759677), etoposide (NSC141540), topotecan (NSC609699), eribulin (NSC707389), gemcitabine (NSC613327), carboplatin (NSC241240), cisplatin (NSC119875), and SN-38 (NSC673596) were obtained from the National Cancer Institute (NCI) Developmental Therapeutics Program Chemical Repository (32). The FDA-approved anticancer drug set is available from the Developmental Therapeutics Program at https://dtp.cancer.gov/organization/dscb/obtaining/available plates.htm. […] The stock solutions were prepared in dimethyl sulfoxide (DMSO, Sigma-Aldrich, St. Louis, MO, cat. D2650), except for the platinum compounds which were prepared in saline (Quality Biological, Gaithersburg, MD, cat. 114-055-101), at 800-fold the tested concentration and stored at -70 degrees C prior to their use. All drugs and investigational agents were tested over a range starting from a high concentration at or near the clinical Cmax and decreasing in half-log increments. If the clinical Cmax for an agent had not been determined, the highest concentration tested was 10 microM (Table 1).
Cell Culture. All cells were maintained in an incubator at 37 degrees C and 5% CO2 with 95% humidity. The PDC lines were cultured according to standard operating procedures established by the NCI PDMR (https://pdmr.cancer.gov). Briefly, all PDCs were thawed and cultured in Matrigel-coated flasks prepared with a working solution of 1X Ham's F-12 nutrient mix, without supplementation (Invitrogen, Waltham, MA, cat. 11765054), 100 U/mL penicillin-streptomycin (Invitrogen, cat. 15140122), and 2.5% Matrigel (Corning Inc., Corning, NY, cat. 354248) for the first three passages. All PDCs were cultured in complete DMEM/F-12 media containing advanced DMEM/F-12 (Invitrogen, cat. 12634028), 4.9% defined fetal bovine serum, heat inactivated (HyClone Laboratories Inc., Logan, UT, cat. SH30070.03HI), 389 ng/mL hydrocortisone (Sigma-Aldrich, cat. H4001), 9.7 ng/mL human EGF recombinant protein (Invitrogen, cat. PHG0313), 23.4 microg/mL adenine (Sigma-Aldrich, cat. A2786), 97.3 U/mL penicillin-streptomycin (Invitrogen, cat. 15140122), 1.9 mM L-glutamine (Invitrogen, cat. 25030081), and 9.7 microM Y-27632 dihydrochloride (Tocris Bioscience, Bristol, United Kingdom, cat. 1254). The PDCs were cultured in complete DMEM/F12 media without 10 microM Y-27632 dihydrochloride for at least two passages prior to the screen. The established cell lines NCI-H1341 and […] were cultured in DMEM/F-12, HEPES (Invitrogen, cat. 11330032), 5% defined fetal bovine serum (HyClone Laboratories Inc., cat. SH30070.03), ITS premix universal culture supplement [insulin (5 microg/mL), transferrin (5 microg/mL), and selenious acid (5 ng/mL)] […]
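Further: exposure lasted 7 days after dosing on day 3 of spheroid growth.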

One may read the viability, T/C as the result in the treated group divided by that in the control group, in per cent. A word on the IC50: it is the concentration at which inhibition is half-maximal. For the compound `CC(C)CC(NC(=O)C(Cc1ccccc1)NC(=O)c1cnccn1)B(O)O` (stereo unspecified), the IC50 is 7.45 nM and 7.16 nM and 1.43 nM. Besides, for the setting “compound 0.000949 µM”, the viability, T/C was 97.1% and 98.4% and 72.1%. For the same compound, the viability, T/C (compound 0.003 µM) was 105% and 94.3% and 10.1%. Moreover, the viability, T/C (compound 0.03 µM) was 0.36% and 0.18% and 1.33%. In addition, the viability, T/C (compound 0.0949 µM) was 0.25% and 0.13% and 2.71%. Further, the viability, T/C (compound 0.3 µM) is 0.36% and 0.19% and 3.19%.
Consider `CC1COCCN1c1cc(-c2ccnn2C)c2ccnc(-c3ccn[nH]3)c2n1` (stereo unspecified), for which the IC50 is greater than 1000 nM. Where the note is “compound 0.00316 µM”, the viability, T/C is 104% and 105% and 107%. Moreover, the viability, T/C (compound 0.01 µM) was 97.6% and 103% and 86.6%. Besides, under “compound 0.0316 µM”, the viability, T/C is 100% and 93.5% and 68%. Also, for the setting “compound 0.1 µM”, the viability, T/C was 72.3% and 75.9% and 62.1%. The viability, T/C (compound 0.316 µM) was 65.9% and 55.5% and 80.2%. The viability, T/C (compound 1 µM) was 51% and 51.4% and 54.9%.
In the case of `CCN(c1cc(-c2ccc(CN3CCOCC3)cc2)cc(C(=O)NCc2c(C)cc(C)[nH]c2=O)c1C)C1CCOCC1`, the IC50 is greater than 3000 nM. Moreover, where the note is “compound 0.00949 µM”, the viability, T/C is 95.9% and 98.2% and 103%. Besides, for the setting “compound 0.03 µM”, the viability, T/C was 89.1% and 111% and 60.8%. In addition, the viability, T/C (compound 0.0949 µM) is 106% and 89.9% and 90.6%. Also, the viability, T/C (compound 0.3 µM) is 105% and 95.1% and 99.1%. Besides, the viability, T/C (compound 0.949 µM) is 104% and 115% and 88.1%. The viability, T/C (compound 3 µM) is 95.5% and 93.6% and 130%.
With `CC[C@@]1(O)C(=O)OCc2c1cc1n(c2=O)Cc2cc3c(CN(C)C)c(O)ccc3nc2-1`, the IC50 was greater than 100 nM. Besides, the viability, T/C (compound 0.000316 µM) is 92.8% and 94.7% and 101%. Besides, for the setting “compound 0.001 µM”, the viability, T/C was 108% and 116% and 99.4%. The viability, T/C (compound 0.00316 µM) is 90.1% and 89.1% and 94.2%. Also, the viability, T/C (compound 0.01 µM) is 88.6% and 87.3% and 75.8%. Besides, where the note is “compound 0.0316 µM”, the viability, T/C was 71% and 95.2% and 80.3%. Also, under “compound 0.1 µM”, the viability, T/C was 67.6% and 80.6% and 70.9%.
As for `CCc1c2c(nc3ccc(O)cc13)-c1cc3c(c(=O)n1C2)COC(=O)[C@]3(O)CC`, the half-maximal inhibitory concentration (IC50) is 234 nM and 137 nM and > 300 nM. Also, the viability, T/C (compound 0.000949 µM) was 88.9% and 98.2% and 69%. Where the note is “compound 0.003 µM”, the viability, T/C was 82.4% and 85.1% and 111%. Besides, the viability, T/C (compound 0.00949 µM) was 72.4% and 70.3% and 75.6%. Moreover, under “compound 0.03 µM”, the viability, T/C is 79.9% and 64.4% and 83.5%. The viability, T/C (compound 0.0949 µM) is 68.2% and 57.1% and 75.1%. Moreover, the viability, T/C (compound 0.3 µM) is 44.6% and 41% and 84.5%.
With `COc1cc(C2c3cc4c(cc3C(OC3OC5COC(C)OC5C(O)C3O)C3COC(=O)C23)OCO4)cc(OC)c1O` (stereo unspecified), the IC50 is greater than 10000 nM. Besides, the viability, T/C (compound 0.0316 µM) is 91.8% and 80.6% and 110%. Besides, under “compound 0.1 µM”, the viability, T/C was 107% and 89.4% and 97.1%. The viability, T/C (compound 0.316 µM) was 75.1% and 76.3% and 79.2%. For the setting “compound 1 µM”, the viability, T/C was 63.8% and 88.8% and 74%. Further, the viability, T/C (compound 3.16 µM) is 69.7% and 85.2% and 68.1%. Moreover, the viability, T/C (compound 10 µM) was 59.4% and 84.4% and 59.1%.
In the case of `COc1cccc2c1C(=O)c1c(O)c3c(c(O)c1C2=O)CC(O)(C(=O)CO)CC3OC1CC(N)C(O)C(C)O1` (stereo unspecified), the IC50 is 436 nM and 420 nM and 211 nM. Besides, under “compound 0.0316 µM”, the viability, T/C was 70.3% and 65.3% and 99.7%. Besides, the viability, T/C (compound 0.1 µM) is 65.2% and 60.5% and 54.1%. The viability, T/C (compound 0.316 µM) was 60.8% and 58.8% and 62.2%. In addition, the viability, T/C (compound 1 µM) was 22.4% and 23% and 6.26%. For the same compound, the viability, T/C (compound 3.16 µM) is 0.22% and 0.36% and 3.97%. The viability, T/C (compound 10 µM) was 0.22% and 0.16% and 3.6%.
Turning to `Cn1ncnc1C1c2n[nH]c(=O)c3cc(F)cc(c23)NC1c1ccc(F)cc1` (stereo unspecified), the IC50 was greater than 100 nM. Further, the viability, T/C (compound 0.000316 µM) is 105% (2×) and 85.5%. Further, the viability, T/C (compound 0.001 µM) is 111% and 107% and 106%. In addition, the viability, T/C (compound 0.00316 µM) is 103% and 101% and 76.3%. Under “compound 0.01 µM”, the viability, T/C was 97.2% and 91.8% and 87.1%. For the same compound, the viability, T/C (compound 0.0316 µM) was 82.2% and 83.4% and 63.1%. The viability, T/C (compound 0.1 µM) is 75.4% and 77% and 89.1%.
For the compound `Nc1ncn(C2CC(O)C(CO)O2)c(=O)n1` (stereo unspecified), the IC50 is greater than 1000 nM. The viability, T/C (compound 0.00316 µM) was 88.2% and 94.6% and 84.1%. Further, the viability, T/C (compound 0.01 µM) is 93.2% and 102% and 118%. Further, the viability, T/C (compound 0.0316 µM) was 94.7% and 90.6% and 73.1%. Also, the viability, T/C (compound 0.1 µM) is 89.7% and 97% and 93.9%. For the same compound, under “compound 0.316 µM”, the viability, T/C is 85.9% and 82.2% and 113%. Moreover, the viability, T/C (compound 1 µM) was 76.2% and 75.2% and 94.4%.
For the compound `Nc1ncn(C2CC(O)C(CO)S2)c(=O)n1` (stereo unspecified), the IC50 is greater than 300 nM. In addition, the viability, T/C (compound 0.000949 µM) was 101% and 103% and 61.3%. Further, the viability, T/C (compound 0.003 µM) is 114% and 103% and 79.2%. For the setting “compound 0.00949 µM”, the viability, T/C is 93.2% and 103% and 71.2%. For the setting “compound 0.03 µM”, the viability, T/C is 97.5% and 101% and 64%. Under “compound 0.0949 µM”, the viability, T/C was 88.2% and 99% and 72.8%. The viability, T/C (compound 0.3 µM) was 78.9% and 82.5% and 87.1%.
Take `O=C(C=Cn1cnc(-c2cc(C(F)(F)F)cc(C(F)(F)F)c2)n1)NNc1cnccn1`: the half-inhibitory concentration (IC50) was 552 nM and 386 nM and 803 nM. Moreover, the viability, T/C (compound 0.00949 µM) was 89.8% and 81.2% and 74.5%. Also, the viability, T/C (compound 0.03 µM) was 88.8% and 78.5% and 89%. Besides, the viability, T/C (compound 0.0949 µM) is 67.4% and 63% and 65.5%. Moreover, the viability, T/C (compound 0.3 µM) was 56.7% and 51.7% and 68.9%. Also, the viability, T/C (compound 0.949 µM) was 45.9% and 42.6% and 45.6%. The viability, T/C (compound 3 µM) is 28.2% and 30.1% and 35.2%.
